Here are results for 14 compounds from publication PMC8373237 (Antimicrobial Agents and Chemotherapy, 2021).

pEC50, pIC50: −log10 of the molar value. In brackets after ≈: the same amount, converted by molar mass. Where two headings read alike, the source gives them in different places. Marks after values point to notes of the source that are not given here. Square brackets hold non-standard residues; d marks the D form. Peptide text beside a SMILES is read from it. NPrGly = CCCNCC(=O)O; Sar = CNCC(=O)O

Data set [1] relates to P. aeruginosa PA103 T3SS (ExoU secretion). Format: cell-based, Pseudomonas aeruginosa.
Data set [2] deals with Y. enterocolitica Ysa T3SS (YspF secretion). Format: cell-based, Yersinia enterocolitica.
In data set [3] the test system is Salmonella enterica Typhimurium SPI-1 T3SS (SipA, SipC secretion). Format: cell-based.
The test system of data set [4] is Salmonella flagellar T3SS (FliC, FliD secretion). The format is cell-based, Salmonella enterica Typhimurium. Details: key to Fla fliC (Table 2): NE: No effect observed.
For data set [5], the system named is C. trachomatis serovar L2 in HeLa cells. The data set can be described thus: Chlamydia infection of HeLa cells (primary and secondary infection). The format is cell-based, Chlamydia trachomatis. Details: key to lowest known inhibitory concentration (∼), cell-based infection assay, Chlamydia: NE: No effect observed. The procedure:
Primary infections. HeLa cell monolayers were infected with C. trachomatis serovar L2 at a multiplicity of infection (MOI) of 1.0 in the presence of one of the following compounds at 9 μM: DMSO, 4EpDN, or 4EpDN 2Sar. Cells were incubated for 24 h in the presence of the above-listed compounds at 37°C and then fixed with 4% paraformaldehyde (PFA). Cells were stained for IncA (Chlamydia inclusion membrane marker), DNA (with DAPI), and MOMP (Chlamydia major outer membrane protein) simultaneously. This method of staining allows visualization of the inclusion independent of MOMP synthesis or transport. The percentage of cells infected (i.e., stained positively for the listed Chlamydia markers) in the presence of the compounds was quantified using confocal microscopy. Quantifications of inclusion take into account both DAPI staining and indirect immunofluoresence with an antibody to MOMP. Ten randomly selected fields of view were measured per experiment. The data represent three biological replicates.
Secondary infections. HeLa cell monolayers were infected with C. trachomatis serovar L2 at an MOI of 1.0 in the presence of one of the following compounds at 9 μM: DMSO, 4EpDN, or 4EpDN 2Sar. Cells were incubated for 48 h in the presence of the above-listed compounds at 37°C. Infected cells were then lysed, and the lysate was applied to fresh HeLa monolayers to enumerate infectious particles. These secondary infections were fixed in 4% PFA at 24 hpi and were stained against MOMP and DNA. The infectious units per ml (IFU/ml) were calculated by averaging the number of infected cells in each of 10 randomly selected fields of view at ×40 magnification on a confocal microscope and multiplying this by the appropriate dilution and area factors. The data represent four biological replicates.

Another data set has as its system P. aeruginosa (PAO1). Format: cell-based, Pseudomonas aeruginosa.
The subject of a further data set is Y. pseudotuberculosis. The format is cell-based, Yersinia pseudotuberculosis. Conditions: 2xYT, 9-120 µM, 12 h.
The nature of another data set: Kinetic solubility. The format is physicochemical. The procedure: […] Then, […] of 15 mM stock compound was added to make a solution of 120 μM final concentration with 0.8% DMSO. The solution was shaken at 37°C for ∼2 h. The solution was passed over a 0.7- μM glass fiber filter. Then, the solution was diluted 1:4 in acetonitrile to crash out any proteins. The solution was centrifuged at 500 × g for 10 min. Avoiding the pellet, 10 μl of supernatant was added to a fresh plate with 90 μl of acetonitrile. The final dilution is 40 times lower. Next, 10 μl of 40× dilution of solution was injected on the Orbi-trap. A 1 μM standard was used for the ratiometric comparison, and the assay was done in triplicate.

Data set [6] concerns Ssa-Esc T3SS, EPEC/EHEC. The note with it: culture-based secretion assay, cited from earlier work.
The subject of data set [7] is Salmonella enterica Typhimurium SPI-1 T3SS. The note with it: cited from earlier work.
Data set [8] has as its system Yersinia pseudotuberculosis Ysc T3SS. Conditions: culture-based secretion assay; ref [87]; cited from earlier work.
In data set [9] the test system is Salmonella enterica Typhimurium SPI-1 T3SS. Conditions: culture-based secretion assay; ref [87]; cited from earlier work.
Data set [10] concerns Ssa-Esc T3SS, EPEC/EHEC. Also on record: method as in PMID 33316970. Conditions: translocation assay; ref [109]; read-out: IC50, EspF translocation; cited from earlier work.
Data set [11] concerns Pseudomonas aeruginosa Psc T3SS. Conditions: cell-based infection assay, ref [67], cited from earlier work.
Data set [12] has as its system Yersinia pseudotuberculosis Ysc T3SS. The note with it: cited from earlier work.
Data set [13] has as its system Chlamydiales T3SS, Chlamydia. The note with it: cell-based infection assay, ref [67], cited from earlier work.
Data set [14] concerns Ssa-Esc T3SS, EPEC/EHEC. Conditions: biochemical assay, cited from earlier work.
Data set [15] has as its system Yersinia pseudotuberculosis Ysc T3SS. Conditions: cited from earlier work. This is another data set of the same source.
Data set [16] concerns Salmonella enterica Typhimurium SPI-1 T3SS. Conditions: translocation assay, cited from earlier work.

What is called pIC50 is −log10 of the IC50, conventionally taken in molar units. In general, solubility refers to how much of the substance goes into solution per volume. In the case of `CCCN1CC(=O)N(C)CC(=O)N[C@@H](CC(C)C)C(=O)N[C@@H]([C@@H](C)CC)C(=O)N[C@H](CC(C)C)C(=O)N[C@H](Cc2ccccc2)C1=O` [4EpDN 2Sar, 4-EpD1,2N 2Sar] (cyclo(I[dL][dF][NPrGly][Sar]L)), the “T3SS inhibitory activity (ExoU secretion), in words” value in data set [1] is listed as “significantly reduced activity”. In addition, the “inhibition of ExoU secretion” value in data set [1] (9 µM) and in [1] (60 µM) was “no effect” in each case. Further, the pIC50 in [1] (read-out: IC50 (Table S1)) was approximately 3.86; in [1] (read-out: IC50, inhibition of secretion of T3SS effector ExoU), 3.86. Moreover, the “secretion of YspF, in words” value in data set [2] was “did not affect its secretion”. The “concentrations at which inhibition of SipC and SipA secretion was seen” value in data set [3] was “greater than 30 μM”. Also, in data set [3], the “lowest known inhibitory concentration (∼), SipAC secretion” value is reported as “∼30 SipAC^b μM”. The “Fla fliC (Table 2)” value in data set [4] is on record as “NE^d”. In [4], the “effect on FliC secretion, in words” value is “no significant effect”. Moreover, the “effect on FliD secretion, in words” value in [4] is reported as “no significant effect”. The “inhibition of formation of infectious progeny” value in data set [5] (9 μM, EBs collected at 48 hpi, fresh monolayers 24 h) was “not”. Moreover, the “decrease of primary inclusion formation” value in data set [5] (9 μM, HeLa cells, 24 hpi) is “not”. Besides, in [5] (Table 2, Chlamydiales), the “lowest known inhibitory concentration (∼), cell-based infection assay, Chlamydia” value is listed as “NE^d”. The “bacterial viability in broth culture” value with P. aeruginosa (PAO1) and in the data set with Y. pseudotuberculosis was “did not affect bacterial viability” in each case. Further, the solubility in “Kinetic solubility” (DMEM (no antibiotics)) and in “Kinetic solubility” (M9) was 61 µM (≈ 40.1 µg/mL) throughout.
Take `C/C=C\C=C\[C@@H]1O[C@](O)([C@H](CC)C(=O)NC/C=C/C=C(\C)[C@@H](OC)[C@@H](C)[C@@H]2O[C@H](/C=C/C=C/C=C(\C)C(=O)c3c(O)ccn(C)c3=O)[C@H](O)[C@@H]2O)[C@H](O)[C@H](O)C1(C)C` [Aurodox]: the “IC50, EspABCD secretion” value in the data set on Ssa-Esc T3SS, EPEC/EHEC [6] (ref [103]) is reported as 0.5 μg/ml EspABCD^b.
For `O=C/C=C/c1ccccc1` [Cinnamaldehyde], the “lowest known inhibitory concentration (∼), SPI-1, SipAB” value in data set [7] (footnotes c and e: cell-based infection assay, SipAB biochemical assay, ref [106]) is on record as “∼100^c SipAB^e μM”.
Take `O=C(O[C@@H]1Cc2c(O)cc(O)cc2O[C@@H]1c1cc(O)c(O)c(O)c1)c1cc(O)c(O)c(O)c1` [Epigallocatechin gallate]: the “lowest known inhibitory concentration (∼), Yops secretion” value in data set [8] is given as “∼16 μg/ml Yops^b”. For the same compound, the “lowest known inhibitory concentration (∼), Sips secretion” value in data set [9] is recorded as “∼12μg/ml Sips^b”. For the same compound, in the data set on Ssa-Esc T3SS, EPEC/EHEC [6] (ref [87]), the “lowest known inhibitory concentration (∼), EspB secretion” value is listed as “∼16 μg/ml EspB^b”. The pIC50 in the data set with Ssa-Esc T3SS, EPEC/EHEC [10] was 5.74.
Usually pEC50 stands for the negative decadic logarithm of the EC50, by convention in mol/L. As to `O=[N+]([O-])c1cc(CN2CCN(c3ccccc3)CC2)c(O)c2ncccc12` [INP1750], the “lowest known inhibitory concentration (∼), PA” value in [11] ([68]) is on record as “∼80^c μM”. The pEC50 in data set [12] is 4.91. In data set [13] ([68]), the “MIC, Chlamydia” value was 25 MIC^c μM.
For `O=[N+]([O-])c1cc(CN2CCN(c3ccc(F)cc3)CC2)c(O)c2ncccc12` [INP1855], the “lowest known inhibitory concentration (∼), PA” value in data set [11] ([69]) was “∼60^c μM”. Further, in [12], the pEC50 was 5.20. In addition, the “MIC, Chlamydia” value in data set [13] ([69]) is 3.13 MIC^c μM.
`O=C(N/N=C/c1ccc(O)cc1O)c1ccc([N+](=O)[O-])cc1` [ME0055]: the “lowest known inhibitory concentration (∼), LEE genes” value with Ssa-Esc T3SS, EPEC/EHEC [14] (ref [76]) is “∼20 LEE genes^e μM”.
Consider `C/C=C(\C)C(O)C(C)/C=C(C)/C=C/C/C(C)=C/Cc1[nH]c(OC)cc(=O)c1C` (centres unmarked) [Mer-A 2026B], for which the “lowest known inhibitory concentration (∼), YopM translocation” value in data set [15] was “∼36; ∼9 YopM^f μM”.
With `O=c1c(O)c(-c2cc(O)c(O)c(O)c2)oc2cc(O)cc(O)c12` [Myricetin], the “lowest known inhibitory concentration (∼), SipA/B translocation” value in data set [16] (ref [107]) is “∼4 μg/ml SipA/B^f”.
`C=CCc1ccc(Oc2cc(CC=C)cc(O)c2O)cc1` [Obovatol]: in data set [7] (cell-based infection assay, ref [89]), the pIC50 is 4.70.
Turning to `C/C=C(\C)[C@H](O)[C@H](C)/C=C(C)/C=C/C/C(C)=C/Cc1nc(OC)c(OC)c(O)c1C` [Piercidin A1], the “lowest known inhibitory concentration (∼), YopM translocation” value in [15] is recorded as “∼36; ∼9 YopM^f μM”.
Turning to `COCCn1c2c([n+](Cc3cnccn3)c1C)C(=O)c1ccccc1C2=O` [Sepantronium bromide (YM155), Sepantronium bromide], in the data set on Ssa-Esc T3SS, EPEC/EHEC [14] (ref [110]), the “lowest known inhibitory concentration (∼), SseK1/SseK2, NleB” value is reported as “∼2 SseK1/SseK2^e, NleB^e μM”.
In the case of `Cc1ccc(C(C)C)c(O)c1` [Thymol], the “lowest known inhibitory concentration (∼), SipA translocation” value in [16] (ref [90]) is on record as “∼0.2 mM SipA^f”.
As for Tannic acid, the pIC50 with Ssa-Esc T3SS, EPEC/EHEC [10] is 6.19.
